Measured values from US12534456B2, “Heterocyclyl pyridines as novel fungicides” (Bayer Aktiengesellschaft, priority 2020, dated 2026).

assay: physchem; type: physicochemical; details: not given
Experimental: Measurement of Log P values as provided herein was performed according to EEC directive 79/831 Annex V.A8 by HPLC (High Performance Liquid Chromatography) on reversed phase columns with the following methods: • ^[a]
If more than one Log P value is available within the same method, all the values are given and separated by “+”.
Lambda-max-values were determined using UV-spectra from 200 nm to 400 nm and the peak values of the chromatographic signals

| SMILES | LogP |
| --- | --- |
| Cc1ccc(CC(CCl)NC(=O)c2cc(Cl)ncc2Oc2cccc(C(F)(F)F)c2)cc1 (stereo not drawn) [14-03] | 5.00^[a] |
| Cc1ccc(C2CON=C(c3cc(Cl)ncc3Oc3cccc(C(F)(F)F)c3)N2)cc1C (racemic) [Compound I-049] | 4.24^[a] |
| COC(=O)c1cc(C#C[Si](C)(C)C)ncc1Oc1cccc(C(F)(F)F)c1 [Compound 1-03] | 5.35^[a] |
| Cc1ccc(CC(CCl)NC(=O)c2c(Oc3cccc(C(F)(F)F)c3)cnc(Cl)c2F)c(C)c1 (stereo not drawn) [14-01] | 5.03^[a] |
| Cc1cccc(C2CON=C(c3cc(Cl)ncc3Oc3cccc(C(F)(F)F)c3)N2)c1C (stereo not drawn) [Compound I-157] | 4.23^[a] |
| FC(F)(F)c1cccc(Oc2cnc(Cl)cc2C2=NOCC(c3ccc4ccccc4c3)N2)c1 (racemic) [Compound I-053] | 4.20^[a] |
| CCN(C)c1cc(C2=NOCC(Cc3ccc(C)cc3Cl)N2)c(Oc2cccc(Cl)c2F)cn1 (racemic) [Compound I-112] | 4.59^[a] |
| Cc1ccc(CC(CCl)NC(=NO)c2c(Oc3cccc(C(F)(F)F)c3)cnc(Cl)c2I)c(C)c1 (stereo not drawn) [16-05] | 5.28^[a] |
| Cc1ccc(CC2CON=C(c3cc(Cl)ncc3Oc3cccc(C4CC4)c3)N2)c(C)c1 (racemic) [Compound I-013] | 4.89^[a] |
| COc1ccc(C2CON=C(c3cc(Cl)ncc3Oc3cccc(C(F)(F)F)c3)N2)cc1 (racemic) [Compound I-045] | 3.60^[a] |
| CC(=O)Oc1cccc(Oc2cnc(Cl)cc2C2=NOCC(Cc3ccc(C)cc3C)N2)c1 (stereo not drawn) [Compound I-134] | 3.90^[a] |
| FC(F)(F)c1cccc(Oc2cnc(Cl)cc2C2=NOCCC(c3ccc(Cl)cc3)N2)c1 (racemic) [Compound I-108] | 2.12^[a] |
| Cc1cc(Cl)ccc1CC(CCl)NC(=O)c1cc(Cl)ncc1Br (stereo not drawn) [17-04] | 3.98^[a] |
| Cc1cc(Cl)ccc1CC1CON=C(c2cc(Cl)ncc2Oc2cccc(Cl)c2F)N1 (racemic) [Compound I-083] | 4.59^[a] |
| Cc1ccc(CC2CON=C(c3cc(Cl)ncc3Oc3cccc(C4CC4)c3F)N2)c(Cl)c1 (racemic) [Compound I-066] | 5.04^[a] |
| Cc1ccc(CC(N)CC(N)=O)c(C)c1 (stereo not drawn) [13-09] | 0.69^[a] |
| Cc1ccc(CC2CON=C(c3cc(Cl)ncc3Oc3cccc(C4CCC4)c3)N2)c(C)c1 (racemic) [Compound I-101] | 5.50^[a] |
| COc1cccc(Oc2cnc(Cl)cc2C(=O)NC(CON)Cc2ccc(C)cc2C)c1 (stereo not drawn) [4-09] | 3.08^[a] |
| Cn1cc(-c2ccc(CC3CON=C(c4cc(Cl)ncc4Oc4cccc(C(F)F)c4)N3)c(Cl)c2)cn1 (racemic) [Compound I-037] | 3.37^[a] |
| Fc1c(Oc2cnc(Cl)cc2C2=NOCC(Cc3ccc(Cl)cc3Cl)N2)cccc1OC(F)(F)F (stereo not drawn) [Compound I-149] | 4.88^[a] |

| SMILES | LogP |
| --- | --- |
| Cc1ccc(CC(CCl)NC(=NO)c2c(Oc3cccc(C(F)(F)F)c3)cnc(Cl)c2F)c(C)c1 (stereo not drawn) [16-01] | 5.74^[a] |
| Cc1cccc(CC2CON=C(c3cc(Cl)ncc3Br)N2)c1Cl (stereo not drawn) [7-07] | 3.44^[a] |
| FC(F)c1cccc(Oc2cnc(Cl)cc2C2=NOCC(Cc3ccc(Br)cc3Cl)N2)c1 (racemic) [Compound I-004] | 4.32^[a] |
| O=C(O)c1cc(Cl)ncc1Oc1cccc(C2CC2)c1 [Compound 1-12] | 2.87^[a] |
| Cc1ccc(CC2CON=C(c3cc(Cl)ncc3Oc3cccc(C(F)(F)F)c3)N2)cc1 (racemic) [Compound I-110] | 4.31^[a] |
| Cc1ccc(CC2CON=C(c3cc(Cl)ncc3Oc3cccc(C)c3F)N2)c(Cl)c1 (stereo not drawn) [Compound I-136] | 4.66^[a] |
| FC(F)(F)Oc1ccc(C2CON=C(c3cc(Cl)ncc3Oc3cccc(C(F)(F)F)c3)N2)cc1 (racemic) [Compound I-055] | 4.26^[a] |
| FC(F)(F)Sc1cccc(Oc2cnc(Cl)cc2C2=NOCC(Cc3ccc(Cl)cc3Cl)N2)c1 (racemic) [Compound I-090] | 5.16^[a] |
| O=C(NC(CCl)Cc1ccc(C(F)(F)F)cc1Cl)c1cc(Cl)ncc1Oc1cccc(C(F)(F)F)c1 (stereo not drawn) [14-09] | 5.36^[a] |
| Cc1ccc(CC(CON2C(=O)c3ccccc3C2=O)NC(=O)c2cc(Cl)ncc2Oc2cccc(C(F)(F)F)c2)c(C)c1 (stereo not drawn) [3-13] | 5.20^[a] |
| Cc1ccc(CC(CCNC(c2ccccc2)(c2ccccc2)c2ccccc2)NC(=O)c2cc(Cl)ncc2Oc2cccc(C(F)(F)F)c2)c(C)c1 (stereo not drawn) [4-14] | 5.35^[a] |
| Cc1ccc(CC(CON)NC(=O)c2cc(Cl)ncc2Br)c(C)c1 (stereo not drawn) [Compound 6-01] | 2.20^[a] |
| Cc1ccc(CC2CON=C(c3cc(Cl)ncc3Oc3cccc(C4CC4)c3)N2)c(C)c1 (single isomer, unassigned) [Compound I-020] | 4.89^[a] |
| Cc1ccc(CC(CON2C(=O)c3ccccc3C2=O)NC(=O)c2cc(Cl)ncc2Oc2cccc(Cl)c2)c(C)c1 (stereo not drawn) [3-12] | 5.11^[a] |
| Cc1ccc(CC(CCl)NC(=NO)c2cc(Cl)nc(F)c2Oc2cccc(C(F)(F)F)c2)c(C)c1 (stereo not drawn) [16-06] | 5.16^[a] |
| COc1cccc(Oc2cnc(Cl)cc2C2=NOCC(Cc3ccc(C)cc3C)N2)c1 (racemic) [Compound I-005] | 4.18^[a] |
| Cc1ccc(CC2CON=C(c3cc(Cl)ncc3Oc3ccc4c(c3)CC4)N2)c(C)c1 (racemic) [Compound I-036] | 4.88^[a] |
| COc1cc(C(=NO)NC(CCl)Cc2ccc(C)cc2Cl)c(Br)cn1 (stereo not drawn) [18-03] | 4.12^[a] |
| Cc1ccc(CC(CCl)NC(=O)c2cc(Cl)ncc2Oc2cccc(C(F)(F)F)c2)c(C)c1 (stereo not drawn) [14-02] | 5.32^[a] |
| Fc1c(Oc2cnc(Cl)cc2C2=NOCC(Cc3ccc(Br)cc3Cl)N2)cccc1C1CC1 (racemic) [Compound I-023] | 5.11^[a] |

| SMILES | LogP |
| --- | --- |
| O=C(NC(CON1C(=O)c2ccccc2C1=O)Cc1ccc(Cl)cc1Cl)c1cc(Cl)ncc1Oc1cccc(C2CC2)c1 (stereo not drawn) [3-03] | 5.62^[a] |
| Cc1ccc(CC2CON=C(c3c(Oc4cccc(C(F)(F)F)c4)cnc(Cl)c3C3CC3)N2)c(C)c1 (stereo not drawn) [Compound I-150] | 4.70^[a] |
| Cc1ccc(CC2CON=C(c3cc(Cl)nc(Cl)c3Oc3cccc(C(F)(F)F)c3)N2)c(C)c1 (racemic) [Compound I-127] | 5.08^[a] |
| Cc1ccc(C2(C)NC(c3cc(Cl)ncc3Oc3cccc(C(F)(F)F)c3)=NO2)cc1 (racemic) [Compound I-109] | 4.59^[a] |
| Cc1ccc(CC2CON=C(c3cc(Cl)ncc3Oc3cccc(C4COC4)c3)N2)c(C)c1 (racemic) [Compound I-113] | 3.68^[a] |
| COc1ccc(C2CCON=C(c3cc(Cl)ncc3Oc3cccc(C(F)(F)F)c3)N2)cc1 (stereo not drawn) [Compound I-155] | 1.90^[a] |
| Cc1ccc(CC2CON=C(c3cc(Cl)ncc3Oc3cccc4c3CCC4)N2)c(C)c1 (racemic) [Compound I-116] | 5.14^[a] |
| Cc1ccc(CC2CON=C(c3cc(C)ncc3Oc3cccc(C4CC4)c3F)N2)c(Cl)c1 (racemic) [Compound I-031] | 4.08^[a] |
| FC(F)(F)c1cccc(Oc2cnc(Cl)cc2C2=NOCC(c3ccc4c(c3)OCCO4)N2)c1 (racemic) [Compound I-052] | 3.48^[a] |
| FC(F)(F)c1cccc(Oc2cnc(Cl)cc2C2=NOCC(Cc3ccc(C(F)(F)F)cc3Cl)N2)c1 (racemic) [Compound I-105] | 4.84^[a] |
| FC(F)(F)c1cccc(Oc2cnc(Cl)cc2C2=NCC(Cc3ccc(Cl)cc3)N2)c1 (racemic) [Compound I-106] | 2.45^[a] |
| Cc1ccc(CC2CON=C(c3cc(Cl)ncc3Br)N2)c(Cl)c1 (stereo not drawn) [7-05] | 3.38^[a] |
| COC(=O)c1cc(C(C)=O)ncc1Oc1cccc(C(F)(F)F)c1 [Compound 1-04] | 3.59^[a] |
| Cn1cc(C2CON=C(c3cc(Cl)ncc3Oc3cccc(C(F)(F)F)c3)N2)c2ccccc21 (racemic) [Compound I-096] | 4.01^[a] |
| FC(F)(F)c1cccc(Oc2cnc(Cl)cc2C2=NOCC(c3ccc4c(c3)CCO4)N2)c1 (racemic) [Compound I-044] | 3.57^[a] |
| COCCOc1cccc(Oc2cnc(Cl)cc2C2=NOCC(Cc3ccc(C)cc3C)N2)c1 (racemic) [Compound I-126] | 4.15^[a] |
| COc1cccc(Oc2cnc(Cl)cc2C(=O)NC(CON2C(=O)c3ccccc3C2=O)Cc2ccc(Br)cc2Cl)c1 (stereo not drawn) [3-08] | 5.05^[a] |
| N#Cc1ccc(C2CON=C(c3cc(Cl)ncc3Oc3cccc(C(F)(F)F)c3)N2)cc1 (racemic) [Compound I-080] | 3.30^[a] |

same assay, conditions: Table 3, compounds of formula (1); method [a]: LC-UV, acidic range, 0.1% formic acid in water and acetonitrile

| SMILES | chromatographic logP |
| --- | --- |
| COC(=O)c1cc(Cl)ncc1Oc1cccc(C(F)(F)F)c1 [Compound 1-07, methyl 2-chloro-5-[3-(trifluoromethyl)phenoxy]isonicotinate] | 3.84 |

same assay, conditions: Table 13, compounds of formula (7); method [a]

| SMILES | chromatographic logP |
| --- | --- |
| Cc1ccc(CC2CON=C(c3cc(C(F)(F)F)ncc3Br)N2)c(C)c1 (racemic) [Compound 7-03, (5RS)-3-[5-bromo-2-(trifluoromethyl)pyridin-4-yl]-5-(2,4-dimethylbenzyl)-5,6-dihydro-4H-1,2,4-oxadiazine] | 2.43 |

same assay, conditions: Table 15, compounds of formula (9); method [a]: LC-UV, acidic range, 0.1% formic acid in water and acetonitrile

| SMILES | chromatographic logP |
| --- | --- |
| N#Cc1cc(Cl)ncc1Oc1cccc(C(F)(F)F)c1 [Compound 9-01, 2-chloro-5-[3-(trifluoromethyl)phenoxy]isonicotinonitrile] | 3.77 |

same assay, conditions: Table 17, compounds of formula (10); method [a]: LC-UV, acidic range, 0.1% formic acid in water and acetonitrile

| SMILES | chromatographic logP |
| --- | --- |
| NC(=NO)c1cc(Cl)ncc1Oc1cccc(C(F)(F)F)c1 [Compound 10-01, 2-chloro-N′-hydroxy-5-[3-(trifluoromethyl)phenoxy]pyridine-4-carboximidamide] | 2.41 |

same assay, conditions: Table 17, compounds of formula (12); method [a]; several values joined by + in some cells

| SMILES | chromatographic logP |
| --- | --- |
| COc1ccc(C(=O)C(F)(F)ON=C(N)c2cc(Cl)ncc2Oc2cccc(C(F)(F)F)c2)cc1 [Compound 12-09, 2-chloro-N′-[1,1-difluoro-2-(4-methoxyphenyl)-2-oxoethoxy]-5-[3-(trifluoromethyl)phenoxy]pyridine-4-carboximidamide] | 3.65 |
